{"source": "patent US12491170B2", "about": "“Stable treprostinil prodrugs” (United Therapeutics Corporation, priority 2020, dated 2025)", "key": {"[1]": {"experiment": "Stability in liver microsomes, rat", "details": "for CLint, calculated (in parentheses) / Half-life, calculated (in parentheses) / CLint / Half-life: microsomes; for AUC Mono (treprostinil formed) / CLint / Half-life: rat"}, "[2]": {"experiment": "Stability in liver microsomes, human", "details": "for AUC / AUC Mono (treprostinil formed) / CLint / Half-life: human"}, "[3]": {"target": "prostaglandin E2 (PGE2) receptor 2 (EP2) (Homo sapiens, UniProt P43116)", "sequence (P43116 whole entry)": "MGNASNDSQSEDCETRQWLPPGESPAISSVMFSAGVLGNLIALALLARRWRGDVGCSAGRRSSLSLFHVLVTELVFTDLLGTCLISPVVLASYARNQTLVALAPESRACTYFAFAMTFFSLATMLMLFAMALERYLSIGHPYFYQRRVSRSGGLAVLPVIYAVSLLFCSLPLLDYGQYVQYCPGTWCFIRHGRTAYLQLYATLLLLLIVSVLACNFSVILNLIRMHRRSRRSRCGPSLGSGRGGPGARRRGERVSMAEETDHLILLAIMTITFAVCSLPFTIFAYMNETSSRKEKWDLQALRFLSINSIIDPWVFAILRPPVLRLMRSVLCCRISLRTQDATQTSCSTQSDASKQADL", "experiment": "EP2 receptor cAMP agonist assay (HEK293T cells)", "format": "cell-based", "details": "summary of findings", "description": "Cyclic AMP assay kit: Multiscreen™ TR-FRET cAMP 1.0 No Wash Assay Kit (Multispan, Inc.)\nCells were thawed from frozen cells and resuspended in assay buffer at desired concentrations. cAMP or Calcium assays were performed according to the manufacturer's protocol using Multiscreen™ TR-FRET cAMP 1.0 No Wash Assay Kit or Multiscreen™ Calcium 1.0 No Wash Kit.\nGas Cyclic AMP (cAMP) Assay: In agonist mode testing, cells were seeded in a 384-well plate at an appropriate density and then were treated with compounds and incubated at 37° C. for 20 minutes. The reaction was terminated by […] trFluor™ Eu-labeled cAMP and trFluor™ 650-labeled anti-cAMP antibody in lysis buffer. […] All testing wells contained 0.1% DMSO in the final concentrations.\nData in graphs are represented in Mean±SD. Dose-dependent responses were fitted with sigmoidal dose-response curves allowing variable slopes using GraphPad Prism version 6 (Graphpad Prism).\nThese studies used cell lines overexpressing either human IP, EP2 or DP1, or EP1 receptors, and following incubation with varying concentrations of compounds, cAMP levels were measured using Fluorescence Resonance Energy Transfer (FRET)."}, "[4]": {"experiment": "Stability in liver microsomes, dog", "details": "for AUC Mono (treprostinil formed) / CLint / Half-life: dog"}, "[5]": {"details": "dog"}}, "note": "Where two headings read alike, the source gives them in different places."}
{"compound": "treprostinil diacetate [Prodrug LXXII]", "values": [{"measurement": "Trep Concentration 0 min", "setting": "[1]", "result": 0.0413, "unit": "µM"}, {"measurement": "Trep Concentration 10 min", "setting": "[1]", "result": 0.095, "unit": "µM"}, {"measurement": "Trep Concentration 20 min", "setting": "[1]", "result": 0.182, "unit": "µM"}, {"measurement": "Trep Concentration 30 min", "setting": "[1]", "result": 0.19, "unit": "µM"}, {"measurement": "Trep Concentration 60 min", "setting": "[1]", "result": 0.216, "unit": "µM"}, {"measurement": "Treprostinil Concentration 0 min", "setting": "[1]", "result": 0.0413, "unit": "µM"}, {"measurement": "Treprostinil Concentration 15 min", "setting": "[1]", "result": 0.095, "unit": "µM"}, {"measurement": "Treprostinil Concentration 30 min", "setting": "[1]", "result": 0.182, "unit": "µM"}, {"measurement": "Treprostinil Concentration 60 min", "setting": "[1]", "result": 0.19, "unit": "µM"}, {"measurement": "Treprostinil Concentration 120 min", "setting": "[1]", "result": 0.216, "unit": "µM"}, {"measurement": "CLint, calculated (in parentheses)", "setting": "[1]", "result": 0.144, "unit": "mL/min/mg protein"}, {"measurement": "Half-life, calculated (in parentheses)", "setting": "[1]", "result": 9.65, "unit": "min"}, {"measurement": "AUC Mono (treprostinil formed)", "setting": "[1]", "result": 10.0, "unit": "µmol·min/L"}, {"measurement": "CLint", "setting": "[1]", "result": "> 0.139", "unit": "mL/min/mg protein"}, {"measurement": "Half-life", "setting": "[1]", "result": "< 10", "unit": "min"}, {"measurement": "Trep Concentration 0 min", "setting": "[2]", "result": 0.989, "unit": "µM"}, {"measurement": "Trep Concentration 10 min", "setting": "[2]", "result": 0.829, "unit": "µM"}, {"measurement": "Trep Concentration 20 min", "setting": "[2]", "result": 0.543, "unit": "µM"}, {"measurement": "Trep Concentration 30 min", "setting": "[2]", "result": 0.485, "unit": "µM"}, {"measurement": "Trep Concentration 60 min", "setting": "[2]", "result": 0.349, "unit": "µM"}, {"measurement": "Treprostinil Concentration 0 min", "setting": "[2]", "result": 0.989, "unit": "µM"}, {"measurement": "Treprostinil Concentration 15 min", "setting": "[2]", "result": 0.829, "unit": "µM"}, {"measurement": "Treprostinil Concentration 30 min", "setting": "[2]", "result": 0.543, "unit": "µM"}, {"measurement": "Treprostinil Concentration 60 min", "setting": "[2]", "result": 0.485, "unit": "µM"}, {"measurement": "Treprostinil Concentration 120 min", "setting": "[2]", "result": 0.349, "unit": "µM"}, {"measurement": "AUC", "setting": "[2]", "result": 33.6, "unit": "µmol·min/L"}, {"measurement": "AUC Mono (treprostinil formed)", "setting": "[2]", "result": 33.6, "unit": "µmol·min/L"}, {"measurement": "CLint", "setting": "[2]; microsomes", "result": ">0.139", "unit": "mL/min/mg protein"}, {"measurement": "Half-life", "setting": "[2]; microsomes", "result": "<10", "unit": "min"}, {"measurement": "Activity at the EP2 receptor compared to treprostinil", "setting": "[3]", "result": "non-traditional dose response curve"}, {"measurement": "Trep Concentration 0 min", "setting": "[4]", "result": 1.07, "unit": "µM"}, {"measurement": "Trep Concentration 10 min", "setting": "[4]", "result": 1.07, "unit": "µM"}, {"measurement": "Trep Concentration 20 min", "setting": "[4]", "result": 1.04, "unit": "µM"}, {"measurement": "Trep Concentration 30 min", "setting": "[4]", "result": 1.05, "unit": "µM"}, {"measurement": "Trep Concentration 60 min", "setting": "[4]", "result": 0.897, "unit": "µM"}, {"measurement": "Treprostinil Concentration 0 min", "setting": "[4]", "result": 1.07, "unit": "µM"}, {"measurement": "Treprostinil Concentration 15 min", "setting": "[4]", "result": 1.07, "unit": "µM"}, {"measurement": "Treprostinil Concentration 30 min", "setting": "[4]", "result": 1.04, "unit": "µM"}, {"measurement": "Treprostinil Concentration 60 min", "setting": "[4]", "result": 1.05, "unit": "µM"}, {"measurement": "Treprostinil Concentration 120 min", "setting": "[4]", "result": 0.897, "unit": "µM"}, {"measurement": "AUC Mono (treprostinil formed)", "setting": "[4]", "result": 60.9, "unit": "µmol·min/L"}, {"measurement": "CLint", "setting": "[4]; microsomes", "result": ">0.139", "unit": "mL/min/mg protein"}, {"measurement": "Half-life", "setting": "[4]; microsomes", "result": "<10", "unit": "min"}, {"measurement": "AUC", "setting": "[5]", "result": 60.91, "unit": "µmol·min/L"}]}
{"compound": "CCCCCC(CCC1C(OC(=O)OC)CC2Cc3c(cccc3OCC(=O)O)CC21)OC(=O)OC", "note": "(centres unmarked) [Prodrug LXXI, treprostinil dicarbonate]", "values": [{"measurement": "CLint, calculated (in parentheses)", "setting": "[1]", "result": 0.575, "unit": "mL/min/mg protein"}, {"measurement": "Half-life, calculated (in parentheses)", "setting": "[1]", "result": 2.41, "unit": "min"}, {"measurement": "AUC Mono (treprostinil formed)", "setting": "[1]", "result": 33.5, "unit": "µmol·min/L"}, {"measurement": "CLint", "setting": "[1]", "result": "> 0.139", "unit": "mL/min/mg protein"}, {"measurement": "Half-life", "setting": "[1]", "result": "< 10", "unit": "min"}, {"measurement": "AUC", "setting": "[2]", "result": 10.56, "unit": "µmol·min/L"}, {"measurement": "AUC Mono (treprostinil formed)", "setting": "[2]", "result": 10.6, "unit": "µmol·min/L"}, {"measurement": "CLint", "setting": "[2]; microsomes", "result": "> 0.139", "unit": "mL/min/mg protein"}, {"measurement": "Half-life", "setting": "[2]; microsomes", "result": "< 10", "unit": "min"}, {"measurement": "CLint, calculated (in parentheses)", "setting": "[2]; microsomes", "result": 0.189, "unit": "mL/min/mg protein"}, {"measurement": "Half-life, calculated (in parentheses)", "setting": "[2]; microsomes", "result": 7.32, "unit": "min"}, {"measurement": "Activity at the EP2 receptor compared to treprostinil", "setting": "[3]", "result": "inactive"}, {"measurement": "AUC Mono (treprostinil formed)", "setting": "[4]", "result": 56.2, "unit": "µmol·min/L"}, {"measurement": "CLint", "setting": "[4]; microsomes", "result": "> 0.139", "unit": "mL/min/mg protein"}, {"measurement": "Half-life", "setting": "[4]; microsomes", "result": "< 10", "unit": "min"}, {"measurement": "CLint, calculated (in parentheses)", "setting": "[4]; microsomes", "result": 0.454, "unit": "mL/min/mg protein"}, {"measurement": "Half-life, calculated (in parentheses)", "setting": "[4]; microsomes", "result": 3.05, "unit": "min"}, {"measurement": "AUC", "setting": "[5]", "result": 56.21, "unit": "µmol·min/L"}]}
